# From US20110224193A1, “INHIBITORS OF DIACYLGLYCEROL ACYLTRANSFERASE” (MERCK SHARP & DOHME CORP, priority 2008, published 2011)
# Biological target: T1, human DGAT1 enzyme (Homo sapiens, UniProt O75907)
# T1 construct: made in house; host or cells: Sf9 insect cells (microsomes)
# T1 sequence (O75907 1-488): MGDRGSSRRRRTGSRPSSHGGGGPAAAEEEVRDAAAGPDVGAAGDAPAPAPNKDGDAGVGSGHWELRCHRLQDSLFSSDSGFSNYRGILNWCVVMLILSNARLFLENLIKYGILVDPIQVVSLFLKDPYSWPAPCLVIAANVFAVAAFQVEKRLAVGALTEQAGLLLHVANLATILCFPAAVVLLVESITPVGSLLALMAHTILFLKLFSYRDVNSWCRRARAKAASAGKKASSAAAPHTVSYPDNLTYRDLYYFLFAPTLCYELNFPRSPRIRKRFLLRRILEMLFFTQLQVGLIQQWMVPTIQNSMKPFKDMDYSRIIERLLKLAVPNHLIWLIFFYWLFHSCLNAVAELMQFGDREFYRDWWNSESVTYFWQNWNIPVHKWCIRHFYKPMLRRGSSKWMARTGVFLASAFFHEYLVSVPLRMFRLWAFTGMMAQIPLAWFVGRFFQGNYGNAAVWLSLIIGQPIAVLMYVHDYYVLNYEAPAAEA
# Experiment: in vitro DGAT1 inhibition assay (microsomes, [14C]-palmitoyl-CoA, SPA beads)
# Assay type: biochemical
# Settings: human DGAT1 expressed in Sf9 insect cell microsomes, 2 hours at room temperature; read-out: hDGAT IC50
# Procedure: A useful assay to determine the DGAT inhibitory activity of the inventive compounds is described below:
# The in vitro assay to identify DGAT1 inhibitors uses human DGAT1 enzyme expressed in Sf9 insect cells prepared as microsomes. The reaction is initiated by the addition of the combined substrates 1,2-dioleoyl-sn-glycerol and [^14C]-palmitoyl-Co A and incubated with test compounds and microsomal membranes for 2 hours at room temperature. The assay is stopped by adding 0.5 mg wheat germ agglutinin beads in assay buffer with 1% Brij-35 and 1% 3-cholamidopropyldimethyl-ammonio-1-propane sulfonate. Plates are sealed with TopSeal and incubated for 18 hours to allow the radioactive triglyceride product to come into proximity with the bead. Plates are read on a TopCount instrument.
# Percent inhibition was calculated as the percent of (test compound inhibition minus non-specific binding) relative to (total binding minus non-specific binding). IC50 values were determined by curve fitting the data to a Sigmoidal dose-response in GraphPad Prism utilizing the following equation:
# Y=A+(B−A)/(1+10̂((Log IC50−X))),
# where A and B are the bottom and top of the curve (highest and lowest inhibition), respectively, and X is the logarithm of concentration.
row,Compound,IC50 [nM]
1,O=C(Nc1ccc(N2CCN(Cc3ccccc3)C(=O)C2)nc1)c1oc(-c2ccccc2)nc1C(F)(F)F [Compound 62],11 to 100
2,O=C(Nc1ccc(N2CCC(n3c(=O)[nH]c4ccccc43)CC2)nc1)c1oc(-c2ccccc2)nc1C(F)(F)F [Compound 72],101 to 500
3,O=C(Nc1ccc(N2CCC(O)(c3ccccc3)CC2)nc1)c1oc(-c2ccccc2)nc1C(F)(F)F [Compound 78],101 to 500
4,O=C(Nc1ccc(N2CCC(O)(c3ccccc3)CC2)nc1)c1nc(-c2ccccc2)oc1C(F)(F)F [Compound 82],101 to 500
5,O=C(Nc1ccc(N2CCC(CCc3ccccc3)CC2)nc1)c1oc(-c2ccccc2)nc1C(F)(F)F [Compound 151],101 to 500
6,O=C(Nc1ccc(N2CCC(OCc3ccccc3)CC2)nc1)c1oc(-c2ccccc2)nc1C(F)(F)F [Compound 153],11 to 100
7,O=C(Nc1ccc(N2CCC(C(O)c3ccccc3)CC2)nc1)c1oc(-c2ccccc2)nc1C(F)(F)F (centres unmarked) [Compound 155],11 to 100
8,O=C(Nc1ccc(N2CCC(=O)N(Cc3ccccc3)CC2)nc1)c1oc(-c2ccccc2)nc1C(F)(F)F [Compound 157],101 to 500
9,O=C(Nc1ccc(N2CCN(C(=O)C(O)C(F)(F)F)CC2)nc1)c1oc(-c2ccccc2)nc1C(F)(F)F (centres unmarked) [Compound 164],11 to 100
10,O=C(Nc1ccc(N2CCN(C(=O)[C@H](O)c3ccccc3)CC2)nc1)c1oc(-c2ccccc2)nc1C(F)(F)F [Compound 165],11 to 100
11,O=C(Nc1ccc(N2CCN(C(=O)C(O)c3ccc(Cl)cc3)CC2)nc1)c1oc(-c2ccccc2)nc1C(F)(F)F (centres unmarked) [Compound 168],11 to 100
12,O=C(Nc1ccc(N2CCN(C(=O)[C@H](O)C3CCCCC3)CC2)nc1)c1oc(-c2ccccc2)nc1C(F)(F)F [Compound 169],11 to 100
13,O=C(Nc1ccc(N2CCN(C(=O)[C@@H](O)C3CCCCC3)CC2)nc1)c1oc(-c2ccccc2)nc1C(F)(F)F [Compound 170],11 to 100
14,O=C(Nc1ccc(N2CCN(C(=O)C(O)Cc3ccccc3)CC2)nc1)c1oc(-c2ccccc2)nc1C(F)(F)F (centres unmarked) [Compound 171],11 to 100
15,O=C(O)CC(O)(C(=O)N1CCN(c2ccc(NC(=O)c3oc(-c4ccccc4)nc3C(F)(F)F)cn2)CC1)C(F)(F)F (centres unmarked) [Compound 172],11 to 100
16,O=C(Nc1ccc(N2CCN(C(=O)C(O)c3ccc4c(c3)OCO4)CC2)nc1)c1oc(-c2ccccc2)nc1C(F)(F)F (centres unmarked) [Compound 176],11 to 100
17,O=C(Nc1ccc(N2CCCN(C(=O)[C@H](O)c3ccccc3)CC2)nc1)c1oc(-c2ccccc2)nc1C(F)(F)F [Compound 179],11 to 100
18,O=C(Nc1ccc(N2CCCN(C(=O)[C@H](O)C3CCCCC3)CC2)nc1)c1oc(-c2ccccc2)nc1C(F)(F)F [Compound 180],11 to 100
19,O=C(Nc1ccc(N2CCCN(C(=O)C(O)C(F)(F)F)CC2)nc1)c1oc(-c2ccccc2)nc1C(F)(F)F (centres unmarked) [Compound 181],11 to 100
20,O=C(Nc1ccc(N2CCCN(C(=O)[C@H](O)c3ccc(F)c(F)c3)CC2)nc1)c1oc(-c2ccccc2)nc1C(F)(F)F [Compound 182],11 to 100
